We go through 2 compounds from paper PMC7020312 (CPT: Pharmacometrics & Systems Pharmacology, 2020).

Structures are written as SMILES. Like-named read-outs stand apart in the source and are kept apart here.

Data set [1] is described as follows: Physicochemical properties used as PBPK inputs. As to conditions: samidorphan, unpublished data provided by Alkermes.
Data set [2] in a line: Blood-to-plasma partition ratio and fraction unbound in plasma. Format: in vitro ADME.
The nature of data set [3]: Caco-2 apical-to-basolateral apparent permeability. Format: in vitro ADME. To be noted: human. (In general: Caco-2 monolayers are a common model of the intestinal barrier.)
Data set [4] in a line: Unbound intrinsic metabolic clearance. Type of data set: in vitro ADME. As to conditions: human.
For another data set, the system named is non-CYP3A4 enzymes. The data set can be described thus: Unbound intrinsic metabolic clearance. Format: in vitro ADME. To be noted: human.
Data set [5] has as its target T1, CYP3A4 (Homo sapiens, UniProt P08684). Type of data set: in vitro ADME.
Data set [6] is described as follows: Renal clearance / renal excretion of unchanged drug. To be noted: human, in vivo.
In another data set the target is CYP2D6 (Homo sapiens, UniProt P10635). Nature of the data set: CYP2D6 competitive inhibition. Format: biochemical.
Chain of CYP2D6 (P10635 whole entry): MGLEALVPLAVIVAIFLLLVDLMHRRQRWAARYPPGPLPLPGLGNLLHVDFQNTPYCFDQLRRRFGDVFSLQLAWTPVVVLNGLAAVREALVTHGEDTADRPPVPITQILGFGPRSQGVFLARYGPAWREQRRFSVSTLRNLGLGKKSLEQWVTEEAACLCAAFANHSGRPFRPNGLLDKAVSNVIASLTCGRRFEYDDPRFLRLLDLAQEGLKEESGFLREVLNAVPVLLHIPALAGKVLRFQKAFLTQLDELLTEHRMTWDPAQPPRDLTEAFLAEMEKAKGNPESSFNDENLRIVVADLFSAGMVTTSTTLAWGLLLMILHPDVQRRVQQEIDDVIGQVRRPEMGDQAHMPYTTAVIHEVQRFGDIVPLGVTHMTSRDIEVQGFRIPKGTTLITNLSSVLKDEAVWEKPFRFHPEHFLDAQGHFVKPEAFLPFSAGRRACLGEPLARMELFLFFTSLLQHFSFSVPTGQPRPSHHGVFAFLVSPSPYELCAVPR
Data set [7] in a line: Fraction unbound in microsomal incubation. To be noted: 0.5 mg/mL microsomal incubation; unpublished data provided by Alkermes. Type of data set: in vitro ADME.
The conditions of data set [8]: cited from earlier work.
The subject of another data set is human μ‐opioid receptor. As to conditions: in vitro; cited from earlier work.
The next data set deals with human κ‐opioid receptor. To be noted: in vitro; cited from earlier work.
The test system of the next data set is human δ‐opioid receptor. As to conditions: in vitro; cited from earlier work.
A further data set has as its system μ‐opioid receptors. As to conditions: in vitro; cited from earlier work.
In the next data set the test system is κ‐opioid receptors. As to conditions: in vitro; cited from earlier work.
Another data set relates to δ‐opioid receptors. To be noted: in vitro; cited from earlier work.
A further data set deals with opioid receptor. To be noted: cited from earlier work.
The test system of the next data set is CYP1A2. The data set can be described thus: Unbound intrinsic metabolic clearance assigned to CYP1A2. To be noted: human, human liver microsomes and recombinant enzymes. Type of data set: in vitro ADME. On the technique in general: Liver microsomes are vesicles of endoplasmic reticulum, rich in cytochrome P450 enzymes.
The test system of a further data set is CYP2C8. Nature of the data set: Unbound intrinsic metabolic clearance assigned to CYP2C8. To be noted: human, human liver microsomes and recombinant enzymes. Format: in vitro ADME.
The next data set concerns UGT1A4. The data set can be described thus: Unbound intrinsic metabolic clearance assigned to UGT1A4. Type of data set: in vitro ADME. As to conditions: human, human liver microsomes and recombinant enzymes.
Another data set relates to FMO3. The data set can be described thus: Unbound intrinsic metabolic clearance assigned to FMO3. Format: in vitro ADME. To be noted: human, human liver microsomes and recombinant enzymes.
The conditions of data set [9]: olanzapine PBPK input, cited from earlier work.
The target in data set [10] is T1, CYP3A4. To be noted: cited from earlier work.
For data set [11] the following is noted: cited from earlier work. This is another data set of the same source.
The mark [12] stands for this setting: ± itraconazole 200 mg q.d., observed, sublingual BUP/SAM 2/2.

T1 sequence (P08684 whole entry): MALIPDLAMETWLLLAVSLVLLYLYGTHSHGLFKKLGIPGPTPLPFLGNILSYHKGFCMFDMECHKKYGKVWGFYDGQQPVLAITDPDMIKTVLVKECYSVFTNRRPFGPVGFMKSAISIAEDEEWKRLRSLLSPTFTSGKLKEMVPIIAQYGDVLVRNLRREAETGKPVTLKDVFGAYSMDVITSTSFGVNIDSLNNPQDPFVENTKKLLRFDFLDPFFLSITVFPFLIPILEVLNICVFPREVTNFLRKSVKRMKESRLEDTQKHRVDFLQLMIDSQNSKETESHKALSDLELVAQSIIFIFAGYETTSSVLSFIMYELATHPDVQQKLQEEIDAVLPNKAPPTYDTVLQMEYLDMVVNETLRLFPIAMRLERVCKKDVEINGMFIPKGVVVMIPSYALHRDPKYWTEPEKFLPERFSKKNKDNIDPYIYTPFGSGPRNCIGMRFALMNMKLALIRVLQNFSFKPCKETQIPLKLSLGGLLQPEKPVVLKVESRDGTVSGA

For orientation: pKa means the negative logarithm of the acid dissociation constant. Higher therefore signals a group that holds its proton tightly. As a reminder, the fraction unbound is free concentration divided by total concentration. For orientation: Papp A→B means the apparent permeability from the apical to the basolateral side of a cell layer. For orientation: microsomal CLint means a measure of how fast metabolising enzymes remove a compound, apart from limits set by blood flow. As a reminder, the Ki is a measure of affinity in units of concentration, obtained from inhibition or displacement. Lower therefore signals higher affinity. Consider `NC(=O)c1ccc2c(c1O)[C@]13CCN(CC4CC4)[C@H](C2)[C@]1(O)CCC(=O)C3` [Samidorphan, samidorphan], for which the pKa came to 7.5 in [1] (pKa1 (acid)) and 8.2 in [1] (pKa2 (base)). In data set [1], the Compound type result was “Ampholyte”. The fraction unbound in data set [2] (plasma) came to 0.69. Also, the “B:P (blood‐to‐plasma partition ratio)” value in data set [2] (samidorphan, unpublished data provided by Alkermes) was 1. In addition, the Papp A→B in data set [3] (Caco-2, pH 6.5) was 18.8 ×10⁻⁶ cm/s. The microsomal CLint was 11.2 µL/min/mg in data set [4], 5.22 µL/min/mg in the data set on non-CYP3A4 enzymes and 5.93 µL/min/mg on CYP3A4 [5]. In [6], this compound gave a CL renal of 183 mL/min. Besides, at CYP2D6, the inhibitory constant (Ki) was found to be 41.5 µM. Further, in [7], the “fumic at 0.5 mg/mL” value stood at 0.86. Moreover, the “AUC ratio (geometric mean)” value in [8] (setting [12]) is given as 1.50. Also, in [8] (setting [12]), the “Cmax ratio (geometric mean)” value was 1.12. Moreover, the “binding affinity (in words)” value in the data set with human μ‐opioid receptor, with human κ‐opioid receptor and in the data set with human δ‐opioid receptor was “high affinity” throughout. In addition, the “functional activity (in words)” value is “antagonist” in the data set on μ‐opioid receptors, “partial agonist” in the data set with κ‐opioid receptors and “partial agonist” with δ‐opioid receptors. The “in vivo function (in words)” value in the data set on opioid receptor is “opioid receptor antagonist”.

As a reminder, the log P is a log measure of how a compound divides between an organic and an aqueous phase. With `Cc1cc2c(s1)Nc1ccccc1N=C2N1CCN(C)CC1` [Olanzapine, olanzapine], the Papp A→B in [3] (Caco-2, pH 7.4) came out at 17.4 ×10⁻⁶ cm/s. Further, the microsomal CLint in data set [4] was found to be 57.9 µL/min/mg; in the data set on CYP1A2, 23.7 µL/min/mg; with CYP2C8, 4.98 µL/min/mg; at CYP3A4 [5] (human liver microsomes and recombinant enzymes), 4.42 µL/min/mg; in the data set on UGT1A4, 20.6 µL/min/mg; with FMO3, 4.28 µL/min/mg. The Compound type result in data set [9] (ref Callaghan et al.21) is given as “Monoprotic base”. Also, the “log P” value in [9] (ref El‐Ela et al.29) is 2.89. Moreover, the “contribution of CYP3A4 to the overall clearance” value on CYP3A4 [10] was less than 10%. Besides, the “administered dose excreted renally as unchanged drug” value in [11] is 7%. In [11] (olanzapine, ref Kassahun et al.15), the “CLR (renal clearance)” value is 0.81 L/h. In addition, the “AUC lower in smokers than in nonsmokers” value in data set [8] (pharmacokinetics study (N = 49)) was 15%. In addition, in data set [8] (population pharmacokinetic analysis (N = 523)), the “increase in clearance, smokers vs. nonsmokers” value is on record as 55%.
